Reference: article PMC10525516, “Novel NADPH Oxidase-2 Inhibitors as Potential Anti-Inflammatory and Neuroprotective Agents” (Antioxidants, 2023)

Test system: THP-1 cells
Assay: qRT-PCR mRNA expression of Nox2 subunits and inflammatory mediators in PMA-treated THP-1 cells
Assay type: cell-based, human
Conditions: 3 µM, 48 h with PMA 100 ng/mL
Description: Human promyelocytic leukemia HL60 cells (Sigma-Aldrich) were grown in RPMI 1640 medium (Gibco, 11875-093, Billings, MT, USA) supplemented with 10% FBS (Omega Scientific (Tarzana, CA, USA)), 100 units/mL penicillin, and 100 µg/mL streptomycin, and were incubated at 37 °C and 5% carbon dioxide (CO2). For differentiation to neutrophil-like cells, HL60 cells were pelleted and resuspended in fresh media containing 1 µM of all trans-retinoic acid and incubated for four to five days. Nox2 activation was achieved by treating differentiated HL60 (dHL60) cells with 1 µM PMA [24]. Human leukemia monocytic cells, THP-1, were grown in RPMI 1640 medium + GlutaMAX^TM (Gibco, 61870-036) and supplemented with 10% FBS, 10 mM HEPES, and 1 mM sodium pyruvate and incubated at 37 °C in 5% CO2 environment. To induce differentiation into macrophages, THP-1 cells were treated with PMA (100 ng/mL) for 48 h. To test the efficacy of Nox2 inhibitors, treatment was performed with or without the inhibitor, along with PMA [35].
mRNA expression analysis was performed as previously described. Briefly, THP-1 cells were treated with PMA (100 ng/mL) with or without the Nox2 inhibitor TG15-132 (3.0 µM) for 48 h. RNA extraction was done using the Quick-RNA miniprep kit (cat. no. R1055, Zymo Research, Irvine, CA, USA) and followed by cDNA synthesis using the qScript cDNA superMix kit (cat. no. 84035, Quantabio, Beverly, MA, USA). Quantitative real-time PCR was performed using specific primers designed to amplify target genes (Table 2). Data obtained were analyzed and converted into fold changes in expression with respect to vehicle-treated cells.

CN(C)CCCn1c(SCCc2c[nH]c3ccccc23)nc2ccc(F)cc2c1=O [TG15-132]
mRNA expression vs PMA-treated cells, additional experiment (Figure 7B): statistically significant reduction in the expression of p47^phox, IL-1β, and TNF | mRNA expression vs cells treated with PMA alone (Figure 7A): reduced the expression of gp91^phox, p47^phox, p67^phox, IL-1β, and TNF
